How the values were obtained:
TYK2 JH2 domain = TYK2 JH2 domain (Homo sapiens (Human), UniProt P29597); assay: TYK2 JH2 NanoBRET assay; format: binding; conditions: Table 20, read-out: TYK2 IC50
Method in brief: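 HEK293T cells transiently expressing NanoLuc-TYK2 JH2 fusion, incubated 2 h with compound and NanoBRET K10 tracer (0.5 µM final). Target engagement read as acceptor/donor BRET ratio after Nano-Glo substrate plus extracellular NanoLuc inhibitor.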

human JAK1 = human JAK1 (Homo sapiens (Human), UniProt P23458); assay: JAK1 TR-FRET kinase assay; format: biochemical; conditions: TR-FRET, JAK1 2.5 nM
Sequence of human JAK1 (P23458 whole entry): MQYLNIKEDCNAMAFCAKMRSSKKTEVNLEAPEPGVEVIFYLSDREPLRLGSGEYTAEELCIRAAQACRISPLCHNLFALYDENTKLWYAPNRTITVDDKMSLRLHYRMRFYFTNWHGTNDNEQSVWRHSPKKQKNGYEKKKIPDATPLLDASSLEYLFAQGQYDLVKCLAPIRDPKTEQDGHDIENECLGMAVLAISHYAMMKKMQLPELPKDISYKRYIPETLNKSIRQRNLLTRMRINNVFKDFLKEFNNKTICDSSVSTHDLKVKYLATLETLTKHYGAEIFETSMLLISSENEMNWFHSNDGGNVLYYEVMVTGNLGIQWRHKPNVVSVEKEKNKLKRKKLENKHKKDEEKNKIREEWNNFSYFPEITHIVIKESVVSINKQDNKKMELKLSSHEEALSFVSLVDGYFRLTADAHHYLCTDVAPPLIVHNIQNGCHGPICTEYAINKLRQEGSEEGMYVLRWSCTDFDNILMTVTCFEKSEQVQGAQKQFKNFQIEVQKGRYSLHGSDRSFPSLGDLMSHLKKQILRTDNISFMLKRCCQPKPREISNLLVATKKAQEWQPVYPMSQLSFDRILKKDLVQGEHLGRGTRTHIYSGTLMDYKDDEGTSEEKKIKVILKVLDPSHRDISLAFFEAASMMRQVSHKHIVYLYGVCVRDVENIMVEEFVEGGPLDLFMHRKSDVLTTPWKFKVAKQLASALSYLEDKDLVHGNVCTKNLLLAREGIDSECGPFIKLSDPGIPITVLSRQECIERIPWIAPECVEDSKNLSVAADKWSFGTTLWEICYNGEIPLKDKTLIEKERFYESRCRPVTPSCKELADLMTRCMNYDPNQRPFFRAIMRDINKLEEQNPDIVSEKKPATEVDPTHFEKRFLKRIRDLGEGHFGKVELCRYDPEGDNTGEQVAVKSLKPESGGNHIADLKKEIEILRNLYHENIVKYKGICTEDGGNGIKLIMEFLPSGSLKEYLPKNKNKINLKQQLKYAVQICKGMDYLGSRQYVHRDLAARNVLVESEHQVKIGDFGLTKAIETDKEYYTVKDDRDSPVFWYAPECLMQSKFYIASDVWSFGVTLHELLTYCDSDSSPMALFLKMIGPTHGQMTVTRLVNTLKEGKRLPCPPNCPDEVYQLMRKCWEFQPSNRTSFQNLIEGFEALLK

human JAK2 = human JAK2 (Homo sapiens (Human), UniProt O60674); assay: JAK2 TR-FRET kinase assay; format: biochemical; conditions: JAK2 0.025 nM
Sequence of human JAK2 (O60674 whole entry): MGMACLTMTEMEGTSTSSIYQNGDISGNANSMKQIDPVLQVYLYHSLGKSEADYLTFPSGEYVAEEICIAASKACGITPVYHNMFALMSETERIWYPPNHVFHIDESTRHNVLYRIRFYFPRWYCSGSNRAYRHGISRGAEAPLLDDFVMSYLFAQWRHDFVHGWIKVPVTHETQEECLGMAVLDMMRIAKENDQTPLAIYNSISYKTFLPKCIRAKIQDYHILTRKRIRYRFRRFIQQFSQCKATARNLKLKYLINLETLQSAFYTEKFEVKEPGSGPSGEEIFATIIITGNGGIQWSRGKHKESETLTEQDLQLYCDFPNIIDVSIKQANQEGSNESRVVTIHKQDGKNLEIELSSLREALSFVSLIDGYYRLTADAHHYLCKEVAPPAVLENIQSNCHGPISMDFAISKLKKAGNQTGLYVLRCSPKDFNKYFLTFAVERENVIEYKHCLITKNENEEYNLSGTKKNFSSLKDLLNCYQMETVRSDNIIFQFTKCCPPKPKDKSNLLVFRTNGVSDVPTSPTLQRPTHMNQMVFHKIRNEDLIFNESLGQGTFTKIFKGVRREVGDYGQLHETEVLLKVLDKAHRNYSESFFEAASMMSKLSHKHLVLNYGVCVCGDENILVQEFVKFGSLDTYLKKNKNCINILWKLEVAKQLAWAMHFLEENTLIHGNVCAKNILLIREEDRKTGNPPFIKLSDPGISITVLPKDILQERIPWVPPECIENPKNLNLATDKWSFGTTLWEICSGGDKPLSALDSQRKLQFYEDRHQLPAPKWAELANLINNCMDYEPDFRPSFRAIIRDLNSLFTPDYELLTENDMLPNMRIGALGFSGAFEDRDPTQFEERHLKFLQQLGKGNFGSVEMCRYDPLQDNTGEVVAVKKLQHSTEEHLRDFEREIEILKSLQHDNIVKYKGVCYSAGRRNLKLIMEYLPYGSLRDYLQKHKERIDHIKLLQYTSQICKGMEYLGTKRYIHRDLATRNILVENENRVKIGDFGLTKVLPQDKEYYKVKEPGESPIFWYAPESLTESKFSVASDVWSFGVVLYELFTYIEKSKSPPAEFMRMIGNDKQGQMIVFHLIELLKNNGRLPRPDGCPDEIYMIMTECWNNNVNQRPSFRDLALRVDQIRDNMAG

human JAK3 = human JAK3 (Homo sapiens (Human), UniProt P52333); assay: JAK3 TR-FRET kinase assay; format: biochemical; conditions: JAK3 0.0125 nM
Sequence of human JAK3 (P52333 whole entry): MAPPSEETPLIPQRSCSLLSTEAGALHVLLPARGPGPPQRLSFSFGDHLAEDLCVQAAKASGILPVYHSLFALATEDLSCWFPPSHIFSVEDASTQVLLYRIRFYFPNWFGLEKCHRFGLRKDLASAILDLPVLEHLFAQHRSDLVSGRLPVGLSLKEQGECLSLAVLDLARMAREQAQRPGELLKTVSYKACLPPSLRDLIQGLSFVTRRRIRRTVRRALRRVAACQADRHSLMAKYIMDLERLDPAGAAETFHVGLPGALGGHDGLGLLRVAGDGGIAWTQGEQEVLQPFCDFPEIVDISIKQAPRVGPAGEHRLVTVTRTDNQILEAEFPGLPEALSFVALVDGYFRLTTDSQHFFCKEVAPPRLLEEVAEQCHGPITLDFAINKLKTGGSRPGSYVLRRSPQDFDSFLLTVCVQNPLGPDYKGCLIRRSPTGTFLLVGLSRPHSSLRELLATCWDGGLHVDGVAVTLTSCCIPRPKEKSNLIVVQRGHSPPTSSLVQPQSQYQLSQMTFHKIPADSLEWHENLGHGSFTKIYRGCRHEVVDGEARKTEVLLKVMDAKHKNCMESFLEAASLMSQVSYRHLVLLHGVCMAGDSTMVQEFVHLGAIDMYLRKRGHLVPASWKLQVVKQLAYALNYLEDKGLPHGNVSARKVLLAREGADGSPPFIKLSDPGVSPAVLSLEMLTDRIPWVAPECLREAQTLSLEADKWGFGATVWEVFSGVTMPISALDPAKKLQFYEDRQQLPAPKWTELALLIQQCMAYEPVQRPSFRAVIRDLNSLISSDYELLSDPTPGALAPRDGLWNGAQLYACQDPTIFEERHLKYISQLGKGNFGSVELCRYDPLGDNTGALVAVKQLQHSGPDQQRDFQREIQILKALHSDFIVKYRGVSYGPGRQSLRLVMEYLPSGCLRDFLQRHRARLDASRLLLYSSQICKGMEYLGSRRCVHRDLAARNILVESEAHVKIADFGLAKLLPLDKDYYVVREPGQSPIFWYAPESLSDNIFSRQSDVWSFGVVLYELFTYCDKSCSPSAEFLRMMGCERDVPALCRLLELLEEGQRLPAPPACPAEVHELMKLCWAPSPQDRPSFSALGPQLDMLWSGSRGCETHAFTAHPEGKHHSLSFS

Sequence of TYK2 JH2 domain (P29597 589-875): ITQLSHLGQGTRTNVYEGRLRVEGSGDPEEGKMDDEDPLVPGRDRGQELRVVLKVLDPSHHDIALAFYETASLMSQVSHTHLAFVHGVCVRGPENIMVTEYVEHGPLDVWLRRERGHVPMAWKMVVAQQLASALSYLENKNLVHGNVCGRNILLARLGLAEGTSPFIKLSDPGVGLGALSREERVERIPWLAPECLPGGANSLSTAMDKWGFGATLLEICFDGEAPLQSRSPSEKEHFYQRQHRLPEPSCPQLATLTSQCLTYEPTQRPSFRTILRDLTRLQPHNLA

CCC(=O)c1cnc(Nc2ccc(CN(C)CC(F)(F)F)cn2)cc1Nc1cccc(-c2ncn(C)n2)c1OC [Compound 9X]
IC50 (TYK2 JH2 domain): 0.005 to 0.05 µM
IC50 (human JAK1): ≥ 0.5 µM
IC50 (human JAK2): ≥ 0.5 µM
IC50 (human JAK3): ≥ 0.5 µM

CCC(=O)c1cnc(Nc2cnc(C3(N)CC3)cn2)cc1Nc1cccc(-c2ncn(C)n2)c1OC [Compound 9YYY]
IC50 (TYK2 JH2 domain): 0.005 to 0.05 µM
IC50 (human JAK1): ≥ 0.5 µM
IC50 (human JAK2): ≥ 0.5 µM
IC50 (human JAK3): ≥ 0.5 µM

CCC(=O)c1cnc(Nc2ccc(CN3CC4(COC4)C3)cn2)cc1Nc1cccc(-c2ncn(C)n2)c1OC [Compound 9YY]
IC50 (TYK2 JH2 domain): < 0.005 µM
IC50 (human JAK1): ≥ 0.5 µM
IC50 (human JAK2): ≥ 0.5 µM
IC50 (human JAK3): 0.05 to 0.5 µM

CCC(=O)c1cnc(Nc2ccc(CN(C)CC(F)F)cn2)cc1Nc1cccc(-c2ncn(C)n2)c1OC [Compound 9Y]
IC50 (TYK2 JH2 domain): 0.005 to 0.05 µM
IC50 (human JAK1): ≥ 0.5 µM
IC50 (human JAK2): ≥ 0.5 µM
IC50 (human JAK3): ≥ 0.5 µM

CCC(=O)c1cnc(Nc2cnc(C3(NC)CC3)cn2)cc1Nc1cccc(-c2ncn(C)n2)c1OC [Compound 9ZZZ]
IC50 (TYK2 JH2 domain): 0.005 to 0.05 µM
IC50 (human JAK1): ≥ 0.5 µM
IC50 (human JAK2): ≥ 0.5 µM
IC50 (human JAK3): ≥ 0.5 µM

CCC(=O)c1cnc(Nc2ccc(CN3CC4(CCO4)C3)cn2)cc1Nc1cccc(-c2ncn(C)n2)c1OC [Compound 9ZZ]
IC50 (TYK2 JH2 domain): < 0.005 µM
IC50 (human JAK1): ≥ 0.5 µM
IC50 (human JAK2): ≥ 0.5 µM
IC50 (human JAK3): ≥ 0.5 µM

CCC(=O)c1cnc(Nc2ccc(C(C)NCC(F)(F)F)cn2)cc1Nc1cccc(-c2ncn(C)n2)c1OC (centres unmarked) [Compound 9Z]
IC50 (TYK2 JH2 domain): 0.005 to 0.05 µM
IC50 (human JAK1): ≥ 0.5 µM
IC50 (human JAK2): 0.05 to 0.5 µM
IC50 (human JAK3): ≥ 0.5 µM

CCC(=O)c1cnc(Nc2ccc(OCCN3CCCC3)cn2)cc1Nc1cccc(-c2ncn(C)n2)c1OC [Compound 10A, 1-(4-((2-methoxy-3-(1-methyl-1H-1,2,4-triazol-3-yl)phenyl)amino)-6-((5-(2-(pyrrolidin-1-yl)ethoxy)pyridin-2-yl)amino)pyridin-3-yl)propan-1-one]
IC50 (TYK2 JH2 domain): < 0.005 µM
IC50 (human JAK1): ≥ 0.5 µM
IC50 (human JAK2): ≥ 0.5 µM
IC50 (human JAK3): ≥ 0.5 µM

CCC(=O)c1cnc(Nc2ccc(CCN(C)C)cn2)cc1Nc1cccc(-c2ncn(C)n2)c1OC [Compound 11A, 1-(6-((5-(2-(dimethylamino)ethyl)pyridin-2-yl)amino)-4-((2-methoxy-3-(1-methyl-1H-1,2,4-triazol-3-yl)phenyl)amino)pyridin-3-yl)propan-1-one]
IC50 (TYK2 JH2 domain): < 0.005 µM
IC50 (human JAK1): ≥ 0.5 µM
IC50 (human JAK2): ≥ 0.5 µM
IC50 (human JAK3): ≥ 0.5 µM

CCC(=O)c1cnc(Nc2ccc(CCNC)cn2)cc1Nc1cccc(-c2ncn(C)n2)c1OC [Compound 11B]
IC50 (TYK2 JH2 domain): 0.005 to 0.05 µM
IC50 (human JAK1): ≥ 0.5 µM
IC50 (human JAK2): ≥ 0.5 µM
IC50 (human JAK3): ≥ 0.5 µM

CCC(=O)c1cnc(Nc2ccc(CCN3CCCC3)cn2)cc1Nc1cccc(-c2ncn(C)n2)c1OC [Compound 11C]
IC50 (TYK2 JH2 domain): < 0.005 µM
IC50 (human JAK1): ≥ 0.5 µM
IC50 (human JAK2): ≥ 0.5 µM
IC50 (human JAK3): ≥ 0.5 µM

CCC(=O)c1cnc(Nc2ccc(CCN(C)C)nn2)cc1Nc1cccc(-c2ncn(C)n2)c1OC [Compound 11D]
IC50 (TYK2 JH2 domain): 0.005 to 0.05 µM
IC50 (human JAK1): ≥ 0.5 µM
IC50 (human JAK2): ≥ 0.5 µM
IC50 (human JAK3): ≥ 0.5 µM

CCC(=O)c1cnc(Nc2ccc(CCN3CCCC3)nn2)cc1Nc1cccc(-c2ncn(C)n2)c1OC [Compound 11E]
IC50 (TYK2 JH2 domain): 0.05 to 0.5 µM
IC50 (human JAK1): ≥ 0.5 µM
IC50 (human JAK2): ≥ 0.5 µM
IC50 (human JAK3): ≥ 0.5 µM

CCC(=O)c1cnc(Nc2cc(CCN(C)C)ncn2)cc1Nc1cccc(-c2ncn(C)n2)c1OC [Compound 11F]
IC50 (TYK2 JH2 domain): < 0.005 µM
IC50 (human JAK1): ≥ 0.5 µM
IC50 (human JAK2): ≥ 0.5 µM
IC50 (human JAK3): ≥ 0.5 µM

CCC(=O)c1cnc(Nc2cc(CCN3CCCC3)ncn2)cc1Nc1cccc(-c2ncn(C)n2)c1OC [Compound 11G]
IC50 (TYK2 JH2 domain): < 0.005 µM
IC50 (human JAK1): ≥ 0.5 µM
IC50 (human JAK2): ≥ 0.5 µM
IC50 (human JAK3): 0.05 to 0.5 µM

CCC(=O)c1cnc(Nc2cnc(CCNC)cn2)cc1Nc1cccc(-c2ncn(C)n2)c1OC [Compound 11H]
IC50 (TYK2 JH2 domain): 0.05 to 0.5 µM
IC50 (human JAK1): ≥ 0.5 µM
IC50 (human JAK2): ≥ 0.5 µM
IC50 (human JAK3): ≥ 0.5 µM

CCC(=O)c1cnc(Nc2cnc(CCN(C)C)cn2)cc1Nc1cccc(-c2ncn(C)n2)c1OC [Compound 11I]
IC50 (TYK2 JH2 domain): 0.005 to 0.05 µM
IC50 (human JAK1): ≥ 0.5 µM
IC50 (human JAK2): ≥ 0.5 µM
IC50 (human JAK3): ≥ 0.5 µM

CCC(=O)c1cnc(Nc2cnc(CCN3CCCC3)cn2)cc1Nc1cccc(-c2ncn(C)n2)c1OC [Compound 11J]
IC50 (TYK2 JH2 domain): 0.005 to 0.05 µM
IC50 (human JAK1): ≥ 0.5 µM
IC50 (human JAK2): ≥ 0.5 µM
IC50 (human JAK3): ≥ 0.5 µM

CCC(=O)c1cnc(Nc2ccc(S(C)(=O)=O)cn2)cc1Nc1cccc(-c2ncn(C)n2)c1OC [Compound 12A, 1-(4-((2-methoxy-3-(1-methyl-1H-1,2,4-triazol-3-yl)phenyl)amino)-6-((5-(methylsulfonyl)pyridin-2-yl)amino)pyridin-3-yl)propan-1-one]
IC50 (TYK2 JH2 domain): < 0.005 µM
IC50 (human JAK1): ≥ 0.5 µM
IC50 (human JAK2): ≥ 0.5 µM
IC50 (human JAK3): ≥ 0.5 µM

CCC(=O)c1cnc(Nc2ccc(CS(C)(=O)=O)cn2)cc1Nc1cccc(-c2ncn(C)n2)c1OC [Compound 13A, 1-(4-((2-methoxy-3-(1-methyl-1H-1,2,4-triazol-3-yl)phenyl)amino)-6-((5-((methylsulfonyl)methyl)pyridin-2-yl)amino)pyridin-3-yl)propan-1-one]
IC50 (TYK2 JH2 domain): < 0.005 µM
IC50 (human JAK1): ≥ 0.5 µM
IC50 (human JAK2): 0.05 to 0.5 µM
IC50 (human JAK3): 0.05 to 0.5 µM

Source: US20230295119A1, “SUBSTITUTED PYRIDINES FOR THE TREATMENT OF INFLAMMATORY DISEASES” (GOSSAMER BIO SERVICES, INC., priority 2020, published 2023)
